26 compounds from US20260078120A1, “SUBSTITUTED PYRIDOPYRIMIDINONES” (MIRATI THERAPEUTICS, INC., priority 2022, published 2026) can be followed below.

The subject of experiment [1] is SKBR3 (PI3Kα wild type) cells. The experiment can be described thus: CellTiter-Glo 2.0 luminescent cell viability assay, 72 hours, SKBR3 cells. The format is cell-based. The settings on record: Homo sapiens, SK-BR-3, 72 h, SKBR3 (PI3Kα wild type) cells, CellTiter-Glo, approximately 72 hours; read-out: SKBR3 (WT) Viability IC50. The essentials: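 Viability measured via CTG luminescence following roughly 72 hours of compound exposure at 37° C. Dosing used a 10 um starting concentration diluted 1:4 over 10 points; percent-of-vehicle data fitted with a variable-slope four-parameter model for IC50.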

In experiment [2] the test system is T47D (PI3Kα H1047R mutant) cells. The experiment can be described thus: CellTiter-Glo 2.0 luminescent cell viability assay, 72 hours, T47D cells. It is filed as cell-based. The settings on record: T47D (PI3Kα H1047R mutant) cells, CellTiter-Glo, approximately 72 hours, read-out: T47D (H1047R mutant) Viability IC50. In short, it runs like this: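 Viability was measured by CellTiter-Glo 2.0 luminescence after approximately 72 h of compound exposure at 37° C. Plating was 1000 cells per well the day before dosing, with ten 1:4 dilutions from a 10 µM top concentration. Values as percent of vehicle were fitted by variable-slope log(inhibitor) regression to give IC50.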

Like-named read-outs stand apart in the source and are kept apart here.

`Cc1cc(C(C)Nc2ccccc2C(=O)O)c2nc(Oc3ccccc3)cc(=O)n2c1` (stereo not shown) [Example 11-341, 2-((1-(7-methyl-4-oxo-2-phenoxy-4H-pyrido[1,2-a]pyrimidin-9-yl)ethyl)amino)benzoic acid]: the IC50 in experiment [1] was over 10 µM; in experiment [2] (Homo sapiens, T47D, 72 h), over 10 µM.

Regarding `Cc1cc(C(C)Nc2ccccc2C(=O)O)c2nc(N3CCCC(C)(O)C3)cc(=O)n2c1` (stereo not shown) [Example 11-342, 2-((1-(2-(3-hydroxy-3-methylpiperidin-1-yl)-7-methyl-4-oxo-4H-pyrido[1,2-a]pyrimidin-9-yl)ethyl)amino)benzoic acid], the IC50 was over 10 µM in experiment [1] and 4.47 µM in experiment [2] (Homo sapiens, T47D, 72 h).

For the compound `Cc1cc(C(C)Nc2ccccc2C(=O)O)c2nc(N3CCCC(O)C3)cc(=O)n2c1` (stereo not shown) [Example 11-343, 2-((1-(2-(3-hydroxypiperidin-1-yl)-7-methyl-4-oxo-4H-pyrido[1,2-a]pyrimidin-9-yl)ethyl)amino)benzoic acid], the IC50 in experiment [1] is over 10 µM; in experiment [2] (Homo sapiens, T47D, 72 h) it was over 10 µM.

Regarding `Cc1cc(C(C)Nc2ccccc2C(=O)O)c2nc(N3C4CCC3CC4)cc(=O)n2c1` (stereo not shown) [Example 11-344, 2-((1-(2-(7-azabicyclo[2.2.1]heptan-7-yl)-7-methyl-4-oxo-4H-pyrido[1,2-a]pyrimidin-9-yl)ethyl)amino)benzoic acid], the IC50 in experiment [1] was over 10 µM; in experiment [2] (Homo sapiens, T47D, 72 h), 2.15 µM.

Take `Cc1cc(C(=O)N2CCCC2C(=O)O)c2nc(N3CCCCC3)cc(=O)n2c1` (stereo not shown) [Example 11-345, (7-methyl-4-oxo-2-(piperidin-1-yl)-4H-pyrido[1,2-a]pyrimidin-9-carbonyl)proline]: the IC50 was over 10 µM in experiment [1] and over 10 µM in experiment [2] (Homo sapiens, T47D, 72 h).

With `Cc1cc(C(=O)N2CCCCC2C(=O)O)c2nc(N3CCCCC3)cc(=O)n2c1` (stereo not shown) [Example 11-346, 1-(7-methyl-4-oxo-2-(piperidin-1-yl)-4H-pyrido[1,2-a]pyrimidine-9-carbonyl)piperidine-2-carboxylic acid], the IC50 in experiment [1] was over 10 µM; in experiment [2] (Homo sapiens, T47D, 72 h), over 10 µM.

Turning to `Cc1cc(N2CCC(C(=O)O)CC2)c2nc(N3CCCCC3)cc(=O)n2c1` [Example 11-347, 1-(7-methyl-4-oxo-2-(piperidin-1-yl)-4H-pyrido[1,2-a]pyrimidin-9-yl)piperidine-4-carboxylic acid], the 50% inhibitory concentration (IC50) in experiment [1] was over 10 µM; in experiment [2] (Homo sapiens, T47D, 72 h) it was over 10 µM.

Regarding `Cc1cc(C(C)Nc2cnc(Cl)cc2C(=O)O)c2nc(N3Cc4ccccc4C3)c(C)c(=O)n2c1` (stereo not shown) [Example 11-348, 2-chloro-5-((1-(2-(isoindolin-2-yl)-3,7-dimethyl-4-oxo-4H-pyrido[1,2-a]pyrimidin-9-yl)ethyl)amino)isonicotinic acid], the IC50 in experiment [1] is over 10 µM; in experiment [2] (Homo sapiens, T47D, 72 h), 5.49 µM.

For the compound `Cc1cc(C(C)Nc2ccccc2C(=O)O)c2nc(N3Cc4ccccc4C3)c(C#N)c(=O)n2c1` (stereo not shown) [Example 11-349, 2-((1-(3-cyano-2-(isoindolin-2-yl)-7-methyl-4-oxo-4H-pyrido[1,2-a]pyrimidin-9-yl)ethyl)amino)benzoic acid], the concentration for half-maximal inhibition (IC50) in experiment [1] was over 10 µM; in experiment [2] (Homo sapiens, T47D, 72 h) it was 0.332 µM.

For `Cc1cc(C(C)Nc2ccncc2C(=O)O)c2nc(N3Cc4ccccc4C3)c(C)c(=O)n2c1` (stereo not shown) [Example 11-350, 4-((1-(2-(isoindolin-2-yl)-3,7-dimethyl-4-oxo-4H-pyrido[1,2-a]pyrimidin-9-yl)ethyl)amino)nicotinic acid], the IC50 in experiment [1] was over 10 µM; in experiment [2] (Homo sapiens, T47D, 72 h) it was over 10 µM.

On to `Cc1cc([C@@H](C)Nc2ccc(F)nc2C(=O)O)c2nc(N3Cc4ccccc4C3)c(C)c(=O)n2c1` [Example 11-351, (R)-6-fluoro-3-((1-(2-(isoindolin-2-yl)-3,7-dimethyl-4-oxo-4H-pyrido[1,2-a]pyrimidin-9-yl)ethyl)amino)picolinic acid], for which the IC50 in experiment [1] was over 10 µM; in experiment [2], 0.946 µM.

On to `Cc1cc(C(C)Nc2ccc(F)nc2C(=O)O)c2nc(N3Cc4ccccc4C3)c(C)c(=O)n2c1` (stereo not shown) [Example 11-352, 6-fluoro-3-((1-(2-(isoindolin-2-yl)-3,7-dimethyl-4-oxo-4H-pyrido[1,2-a]pyrimidin-9-yl)ethyl)amino)picolinic acid], for which the IC50 in experiment [1] was over 10 µM; in experiment [2] (Homo sapiens, T47D, 72 h) it was 0.0747 µM.

For `Cc1cc([C@H](C)Nc2ccc(C(F)(F)F)nc2C(=O)O)c2nc(N3Cc4ccccc4C3)c(C)c(=O)n2c1` [Example 11-353, (S)-3-((1-(2-(isoindolin-2-yl)-3,7-dimethyl-4-oxo-4H-pyrido[1,2-a]pyrimidin-9-yl)ethyl)amino)-6-(trifluoromethyl) picolinic acid], the concentration for half-maximal inhibition (IC50) was over 10 µM in experiment [1] and 6.29 µM in experiment [2] (Homo sapiens, T47D, 72 h).

`Cc1cc([C@@H](C)Nc2ccc(C(F)(F)F)nc2C(=O)O)c2nc(N3Cc4ccccc4C3)c(C)c(=O)n2c1` [Example 11-354, (R)-3-((1-(2-(isoindolin-2-yl)-3,7-dimethyl-4-oxo-4H-pyrido[1,2-a]pyrimidin-9-yl)ethyl)amino)-6-(trifluoromethyl)picolinic acid]: the half-maximal inhibitory concentration (IC50) was over 10 µM in experiment [1] and 0.703 µM in experiment [2] (Homo sapiens, T47D, 72 h).

With `Cc1cc(C(C)Nc2ccc(C(F)(F)F)nc2C(=O)O)c2nc(N3Cc4ccccc4C3)c(C)c(=O)n2c1` (stereo not shown) [Example 11-355, 3-((1-(2-(isoindolin-2-yl)-3,7-dimethyl-4-oxo-4H-pyrido[1,2-a]pyrimidin-9-yl)ethyl)amino)-6-(trifluoromethyl) picolinic acid], the IC50 in experiment [1] was over 10 µM; in experiment [2] (Homo sapiens, T47D, 72 h), 0.88 µM.

`Cc1cc(C(C)Nc2cccnc2C(=O)O)c2nc(N3CCCCC3)c(C)c(=O)n2c1` (stereo not shown) [Example 11-356, 3-((1-(3,7-dimethyl-4-oxo-2-(piperidin-1-yl)-4H-pyrido[1,2-a]pyrimidin-9-yl)ethyl)amino)picolinic acid]: the IC50 in experiment [1] stood at 1.2 µM; in experiment [2] (Homo sapiens, T47D, 72 h), 0.532 µM.

Turning to `Cc1cc([C@H](C)Nc2ccc(Cl)nc2C(=O)O)c2nc(N3CCCCC3)c(C)c(=O)n2c1` [Example 11-357, (S)-6-chloro-3-((1-(3,7-dimethyl-4-oxo-2-(piperidin-1-yl)-4H-pyrido[1,2-a]pyrimidin-9-yl)ethyl)amino)picolinic acid], the IC50 in experiment [1] was over 10 µM; in experiment [2] (Homo sapiens, T47D, 72 h), 0.195 µM.

As to `Cc1cc([C@@H](C)Nc2ccc(Cl)nc2C(=O)O)c2nc(N3CCCCC3)c(C)c(=O)n2c1` [Example 11-358, (R)-6-chloro-3-((1-(3,7-dimethyl-4-oxo-2-(piperidin-1-yl)-4H-pyrido[1,2-a]pyrimidin-9-yl)ethyl)amino)picolinic acid], the IC50 amounted to 6.21 µM in experiment [1] and 1.27 µM in experiment [2] (Homo sapiens, T47D, 72 h).

For the compound `Cc1cc(C(C)Nc2ccc(Cl)nc2C(=O)O)c2nc(N3CCCCC3)c(C)c(=O)n2c1` (stereo not shown) [Example 11-359, 6-chloro-3-((1-(3,7-dimethyl-4-oxo-2-(piperidin-1-yl)-4H-pyrido[1,2-a]pyrimidin-9-yl)ethyl)amino)picolinic acid], the half-inhibitory concentration (IC50) in experiment [1] worked out at 8.11 µM; in experiment [2] (Homo sapiens, T47D, 72 h) it was 0.362 µM.

In the case of `Cc1cc([C@@H](C)Nc2ccc(Cl)nc2C(=O)O)c2nc(N3Cc4ccccc4C3)c(C)c(=O)n2c1` [Example 11-360, (R)-6-chloro-3-((1-(2-(isoindolin-2-yl)-3,7-dimethyl-4-oxo-4H-pyrido[1,2-a]pyrimidin-9-yl)ethyl)amino)picolinic acid], the values for the half-inhibitory concentration (IC50) in experiment [1] and in experiment [2] were 8.26 µM and 1.09 µM, respectively.

Turning to `Cc1cc(C(C)Nc2ccc(Cl)nc2C(=O)O)c2nc(N3Cc4ccccc4C3)c(C)c(=O)n2c1` (stereo not shown) [Example 11-361], the IC50 in experiment [1] turned out to be 8.79 µM; in experiment [2] (Homo sapiens, T47D, 72 h) it was 0.277 µM.

Take `Cc1cc(C(C)Nc2ccccc2C(=O)O)c2nc(N3Cc4ccccc4C3=O)c(C)c(=O)n2c1` (stereo not shown) [Example 11-362, 2-((1-(3,7-dimethyl-4-oxo-2-(1-oxoisoindolin-2-yl)-4H-pyrido[1,2-a]pyrimidin-9-yl)ethyl)amino)benzoic acid]: the half-maximal inhibitory concentration (IC50) in experiment [1] is over 10 µM; in experiment [2] (Homo sapiens, T47D, 72 h), 1.37 µM.

As for `Cc1cc(C(C)Nc2c(F)cccc2C(=O)O)c2nc(N3Cc4ccccc4C3)c(C)c(=O)n2c1` (stereo not shown) [Example 11-363, 3-fluoro-2-((1-(2-(isoindolin-2-yl)-3,7-dimethyl-4-oxo-4H-pyrido[1,2-a]pyrimidin-9-yl)ethyl)amino)benzoic acid], the IC50 is over 10 µM in experiment [1] and 2.89 µM in experiment [2] (Homo sapiens, T47D, 72 h).

For the compound `Cc1cc(C(C)Nc2cc(F)ccc2C(=O)O)c2nc(N3Cc4ccccc4C3)c(C)c(=O)n2c1` (stereo not shown) [Example 11-364, 4-fluoro-2-((1-(2-(isoindolin-2-yl)-3,7-dimethyl-4-oxo-4H-pyrido[1,2-a]pyrimidin-9-yl)ethyl)amino)benzoic acid], the IC50 in experiment [1] was over 10 µM; in experiment [2] (Homo sapiens, T47D, 72 h) it was 5.42 µM.

With `Cc1cc([C@H](C)Nc2ccc(F)cc2C(=O)O)c2nc(N3Cc4ccccc4C3)c(C)c(=O)n2c1` [Example 11-365, (S)-5-fluoro-2-((1-(2-(isoindolin-2-yl)-3,7-dimethyl-4-oxo-4H-pyrido[1,2-a]pyrimidin-9-yl)ethyl)amino)benzoic acid], the IC50 was over 10 µM in experiment [1] and 3.27 µM in experiment [2] (Homo sapiens, T47D, 72 h).

On to `Cc1cc([C@@H](C)Nc2ccc(F)cc2C(=O)O)c2nc(N3Cc4ccccc4C3)c(C)c(=O)n2c1` [Example 11-366, (R)-5-fluoro-2-((1-(2-(isoindolin-2-yl)-3,7-dimethyl-4-oxo-4H-pyrido[1,2-a]pyrimidin-9-yl)ethyl)amino)benzoic acid], for which the half-inhibitory concentration (IC50) in experiment [1] was 9.62 µM; in experiment [2] (Homo sapiens, T47D, 72 h), 0.144 µM.

One may read the IC50 as the concentration that inhibits the measured activity by half.
